Measurements as given in US20230048576A1, “COMPOUNDS FOR THE TREATMENT OF NEUROPATHIC PAIN” (City of Hope, priority 2019, published 2023).

Columns and labels:
[1] = Mean group body weight in Taxol model; format: in vivo, rat; settings: 100 mg/kg PO, Group 4
Description: (§1) Neuropathic pain was induced by intraperitoneal administration of Taxol at a dose level of 6 mg/kg on study days 0-6 and 12 mg/kg on study days 7-12. Following injection of Taxol animals experienced pain as was assessed using the von Frey test. The development of neuropathic pain was confirmed by measuring mechanical allodynia (Von Frey test) on study day 13 (for inclusion) and on study day 14 (1 hour and 2 hour post dosing) and 24 hour post first dosing.

[2] = Survival of animals during the study; format: in vivo, rat
Description: as §1

CC(C)(Oc1ccc(NC(=O)Nc2ccc(Cc3ccc(NC(=O)Nc4ccc(OC(C)(C)C(=O)O)cc4)c(Cl)c3)cc2Cl)cc1)C(=O)O [LR-90, methylene bis[4,4′-(2-chlorophenylureidophenoxyisobutyric acid)]]
Mean group body weight (% from baseline) ([1]; Day 3): 106.74% | Mean group body weight ([1]; Day 5): 257.25 g | Mean group body weight (% from baseline) ([1]; Day 5): 115.56% | Mean group body weight ([1]; Day 7): 267.25 g | Mean group body weight (% from baseline) ([1]; Day 7): 120.04% | Mean group body weight ([1]; Day 9): 276.50 g | Mean group body weight (% from baseline) ([1]; Day 9): 124.20% | Mean group body weight ([1]; Day 11): 285.00 g | Mean group body weight (% from baseline) ([1]; Day 11): 128.01% | Mean group body weight ([1]; Day 13): 288.75 g | Mean group body weight (% from baseline) ([1]; Day 13): 129.71% | Mean group body weight ([1]; Day 16): 284.75 g | Mean group body weight (% from baseline) ([1]; Day 16): 127.91% | Mean group body weight ([1]; Day 20): 266.63 g | Mean group body weight (% from baseline) ([1]; Day 20): 119.75% | Mean group body weight ([1]; Day 23): 249.00 g | Mean group body weight (% from baseline) ([1]; Day 23): 111.34% | Mean group body weight ([1]; Day 26): 234.00 g | Mean group body weight (% from baseline) ([1]; Day 26): 106.04% | Survived Animals in % ([2]; 25 mg/kg PO, Group 6, Study Day 13): 100% | Survived Animals in % ([2]; 25 mg/kg PO, Group 6, Study Day 14): 100% | Survived Animals in % ([2]; 25 mg/kg PO, Group 6, Study Day 15): 100% | Survived Animals in % ([2]; 25 mg/kg PO, Group 6, Study Day 16): 100% | Survived Animals in % ([2]; 25 mg/kg PO, Group 6, Study Day 17): 100% | Survived Animals in % ([2]; 25 mg/kg PO, Group 6, Study Day 18): 100% | Survived Animals in % ([2]; 25 mg/kg PO, Group 6, Study Day 19): 100% | Survived Animals in % ([2]; 25 mg/kg PO, Group 6, Study Day 20): 100% | Survived Animals in % ([2]; 25 mg/kg PO, Group 6, Study Day 21): 100% | Survived Animals in % ([2]; 25 mg/kg PO, Group 6, Study Day 22): 100% | Survived Animals in % ([2]; 25 mg/kg PO, Group 6, Study Day 23): 100% | Survived Animals in % ([2]; 25 mg/kg PO, Group 6, Study Day 24): 100% | Survived Animals in % ([2]; 25 mg/kg PO, Group 6, Study Day 25): 75% | Survived Animals in % ([2]; 25 mg/kg PO, Group 6, Study Day 28): 38% | Survived Animals in % ([2]; 50 mg/kg PO, Group 5, Study Day 13): 100% | Survived Animals in % ([2]; 50 mg/kg PO, Group 5, Study Day 14): 100% | Survived Animals in % ([2]; 50 mg/kg PO, Group 5, Study Day 15): 100% | Survived Animals in % ([2]; 50 mg/kg PO, Group 5, Study Day 16): 100% | Survived Animals in % ([2]; 50 mg/kg PO, Group 5, Study Day 17): 100% | Survived Animals in % ([2]; 50 mg/kg PO, Group 5, Study Day 18): 100% | Survived Animals in % ([2]; 50 mg/kg PO, Group 5, Study Day 19): 100% | Survived Animals in % ([2]; 50 mg/kg PO, Group 5, Study Day 20): 100% | Survived Animals in % ([2]; 50 mg/kg PO, Group 5, Study Day 21): 100% | Survived Animals in % ([2]; 50 mg/kg PO, Group 5, Study Day 22): 88% | Survived Animals in % ([2]; 50 mg/kg PO, Group 5, Study Day 23): 88% | Survived Animals in % ([2]; 50 mg/kg PO, Group 5, Study Day 24): 50% | Survived Animals in % ([2]; 50 mg/kg PO, Group 5, Study Day 25): 50% | Survived Animals in % ([2]; 50 mg/kg PO, Group 5, Study Day 28): 38% | Survived Animals in % ([2]; 100 mg/kg PO, Group 4, Study Day 13): 100% | Survived Animals in % ([2]; 100 mg/kg PO, Group 4, Study Day 14): 100% | Survived Animals in % ([2]; 100 mg/kg PO, Group 4, Study Day 15): 100% | Survived Animals in % ([2]; 100 mg/kg PO, Group 4, Study Day 16): 100% | Survived Animals in % ([2]; 100 mg/kg PO, Group 4, Study Day 17): 100% | Survived Animals in % ([2]; 100 mg/kg PO, Group 4, Study Day 18): 100% | Survived Animals in % ([2]; 100 mg/kg PO, Group 4, Study Day 19): 100% | Survived Animals in % ([2]; 100 mg/kg PO, Group 4, Study Day 20): 100% | Survived Animals in % ([2]; 100 mg/kg PO, Group 4, Study Day 21): 100% | Survived Animals in % ([2]; 100 mg/kg PO, Group 4, Study Day 22): 100% | Survived Animals in % ([2]; 100 mg/kg PO, Group 4, Study Day 23): 88% | Survived Animals in % ([2]; 100 mg/kg PO, Group 4, Study Day 24): 63% | Survived Animals in % ([2]; 100 mg/kg PO, Group 4, Study Day 25): 38% | Survived Animals in % ([2]; 100 mg/kg PO, Group 4, Study Day 28): 38%
